Assay results: US11253524B2 (Gilead Sciences, Inc., priority 2018, dated 2022)

Key:
[1] = target: T1, OATP1B1 (Homo sapiens, UniProt Q9Y6L6); experiment: OATP1B1 inhibition assay using Fluo-3 as probe substrate, CHO cells; format: cell-based; set-up: expressed in transfected cells; host or cells: CHO cells; conditions: for IC50: OATP1B1, Fluo-3; for inhibition at 1 h, 100 µM: human, CHO cells transfected with human OATP1B1, pH 7.4, probe Fluo-3 (2 μM), OATP1B1, Fluo-3, at 100 μM, read-out: Maximum inhibition at highest test conc. (% of control)
T1 sequence (Q9Y6L6 1-691): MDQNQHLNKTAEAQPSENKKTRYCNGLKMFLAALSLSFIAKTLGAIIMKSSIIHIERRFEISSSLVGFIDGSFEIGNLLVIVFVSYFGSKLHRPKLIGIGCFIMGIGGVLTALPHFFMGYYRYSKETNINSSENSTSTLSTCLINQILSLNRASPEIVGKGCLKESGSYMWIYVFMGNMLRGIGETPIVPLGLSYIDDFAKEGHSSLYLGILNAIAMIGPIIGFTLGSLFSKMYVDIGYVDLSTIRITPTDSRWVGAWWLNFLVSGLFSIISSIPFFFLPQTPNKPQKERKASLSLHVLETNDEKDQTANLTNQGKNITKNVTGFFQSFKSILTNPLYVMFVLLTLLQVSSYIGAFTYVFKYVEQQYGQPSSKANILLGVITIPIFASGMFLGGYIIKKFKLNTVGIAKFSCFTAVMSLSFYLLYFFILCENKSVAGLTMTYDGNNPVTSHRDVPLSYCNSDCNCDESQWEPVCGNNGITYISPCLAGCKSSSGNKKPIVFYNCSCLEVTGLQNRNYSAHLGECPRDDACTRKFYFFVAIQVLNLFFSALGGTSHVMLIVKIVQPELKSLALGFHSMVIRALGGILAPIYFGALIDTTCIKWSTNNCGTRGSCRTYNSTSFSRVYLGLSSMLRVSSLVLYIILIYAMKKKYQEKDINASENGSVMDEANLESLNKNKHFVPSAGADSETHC
Procedure: (§1) Chinese Hamster Ovary (CHO) cells, either wild type or transfected with the genes encoding human OATP1B1 or OATP1B3, were maintained in Dulbecco's Modification of Eagle's Medium (DMEM) containing 1,000 mg/L D-glucose, L-glutamine, 25 mM HEPES buffer, and 110 mg/L sodium pyruvate, 1% Pen/Strep, 10% fetal bovine serum, 0.05 mg/mL L-proline and 0.5 mg/mL of geneticin G-418. Cells were maintained in incubators set at 37° C., 90% humidity and 5% CO2. OATP1B1 or OATP1B3 overexpressing CHO cells were seeded in BioCoat Poly-D-Lysine coated 96 well black cell culture plates with clear bottoms at a density of 1×10^5 cells/well. Sodium butyrate (10 mM) was added to the OATP1B1 and OATP1B3 cells to increase the protein expression level, and the cells were grown to confluence overnight. The assay buffer contained 142 mM NaCl, 5 mM KCl, 1 mM KH2PO4, 1.2 mM MgSO4, 1.5 mM CaCl2, 5 mM Glucose and 12.5 mM HEPES (pH 7.4). After removal of the media and before adding test compounds, the cells were washed twice with 37° C. assay buffer followed by a 0.5 h pre-incubation with assay buffer. Test compounds were serially diluted in DMSO at 250-fold of final test concentrations to create the compound spiking solutions. Compounds were then spiked into assay buffer containing 2 μM Fluo-3 and incubated with cells for 1 h. Following removal of assay buffer containing Fluo-3 and test compound, cells were washed 3 times with 200 μl of ice cold assay buffer and then lysed at room temperature for 15 minutes in a lysis buffer containing […] in a 1 mM CaCl2 solution. Substrate accumulations were determined for Fluo-3 fluorescence at an excitation of 485 nm and emission of 530 nm.
(§2) Percent inhibition was calculated according to the following equation: % inhibition=[1−{[OATP]i−[WT]ni}/{[OATP]ni−[WT]ni}]*100 where: [OATP]i represent the substrate accumulation in the presence of test compound for either OATP1B1, OATP1B3, or OATP2B1 cells; [OATP]ni represents the substrate accumulation in the absence of test compound for either OATP1B1, OATP1B3, or OATP2B1 cells, respectively; and [WT]ni represents the substrate accumulation in the absence of test compound for wild type cells or Mock cells, respectively. IC50 Determination in Transporter Assays
(§3) IC50 was determined according to the procedures described in Example 5. […] Results are reported as NIO (no interaction observed).

[2] = target: T2, OATP1B3 (Homo sapiens, UniProt Q9NPD5); experiment: OATP1B3 inhibition assay using Fluo-3 as probe substrate, CHO cells; format: cell-based; set-up: expressed in transfected cells; host or cells: CHO cells; conditions: for Maximum inhibition at highest test conc. (% of control) / inhibition at 1 h, 100 µM: OATP1B3, Fluo-3, at 100 μM; for IC50 (μM): OATP1B3, Fluo-3, NIO = no interaction observed; for inhibition at 1 h, 100 µM: human, CHO cells transfected with human OATP1B3, pH 7.4, probe Fluo-3 (2 μM), read-out: Maximum inhibition at highest test conc. (% of control)
T2 sequence (Q9NPD5 1-702): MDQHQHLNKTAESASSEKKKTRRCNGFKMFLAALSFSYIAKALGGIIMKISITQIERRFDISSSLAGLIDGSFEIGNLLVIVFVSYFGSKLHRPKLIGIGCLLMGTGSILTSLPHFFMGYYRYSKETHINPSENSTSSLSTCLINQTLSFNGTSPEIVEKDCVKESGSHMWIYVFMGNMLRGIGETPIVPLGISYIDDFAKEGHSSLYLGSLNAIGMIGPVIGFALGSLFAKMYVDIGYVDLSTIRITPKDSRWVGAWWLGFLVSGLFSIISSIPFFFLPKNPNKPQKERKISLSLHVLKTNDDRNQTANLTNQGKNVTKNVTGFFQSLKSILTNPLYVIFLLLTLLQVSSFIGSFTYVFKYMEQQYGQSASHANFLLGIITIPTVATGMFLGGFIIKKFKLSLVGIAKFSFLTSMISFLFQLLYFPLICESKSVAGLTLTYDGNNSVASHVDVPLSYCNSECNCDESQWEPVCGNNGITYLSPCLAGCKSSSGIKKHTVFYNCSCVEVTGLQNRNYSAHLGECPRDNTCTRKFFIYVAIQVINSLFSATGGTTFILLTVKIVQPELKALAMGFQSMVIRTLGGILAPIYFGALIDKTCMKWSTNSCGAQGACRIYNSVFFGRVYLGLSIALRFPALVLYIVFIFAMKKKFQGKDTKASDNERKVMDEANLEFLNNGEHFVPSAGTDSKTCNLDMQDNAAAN
Procedure: as §1, §2, §3

[3] = In vivo BIC metabolism, plasma profile after oral [14C]BIC, rat; set-up: species or system Wistar Han Rat; conditions: rats, 0 to 168 hours post dose, ND = not detected
Excerpt: (§4) Metabolic pathways included hydroxylation, oxidative defluorination, direct glucuronidation, and oxidation followed by phase II conjugation. In the monkey, BIC was metabolized through the oxidative pathways to a greater extent compared to rat and human.

[4] = In vivo BIC metabolism, plasma profile after oral [14C]BIC, monkey; set-up: species or system Cynomolgus Monkey; conditions: monkeys, 0 to 72 hours post dose, ND = not detected
Excerpt: as §4

SMILES | IC50 [1] [µM] | inhibition at 1 h, 100 µM [1] [%] | Maximum inhibition at highest test conc. (% of control) [2] | IC50 (μM) [2] | inhibition at 1 h, 100 µM [2] [%] | % of Total Radioactivity in AUC Pooled Plasma [3] [%] | % of Total Radioactivity in AUC Pooled Plasma [4] [%] | Maximum inhibition at highest test conc. (% of control) ([2]; 100 µM)
O=C(NCc1c(F)cc(F)c(O)c1F)c1cn2c(c(O)c1=O)C(=O)N1[C@H]3CC[C@H](C3)O[C@@H]1C2 [Metabolite M23] | 99.9 | 51 | minimal to no inhibition | NIO | 20 | 2.36 |  | 
O=C(NCc1c(F)cc(F)c(OS(=O)(=O)O)c1F)c1cn2c(c(O)c1=O)C(=O)N1C(C2)O[C@@H]2CC[C@H]1C2 (stereo partly drawn) [Metabolite M20] | 90.1 | 54 | minimal to no inhibition | NIO | 18 | 11.3 | 0.77 | 
O=C(NCc1c(F)cc(F)cc1F)c1cn2c(c(O)c1=O)C(=O)N1[C@H]3CC[C@H](C3)O[C@@H]1C2 [BIC, bictegravir, reference compound] |  |  |  |  |  | 76.5 | 80.2 | 
O=C(NCc1c(F)cc(F)cc1F)c1cn2c(c(O[C@@H]3O[C@H](C(=O)O)[C@@H](O)[C@H](O)[C@H]3O)c1=O)C(=O)N1[C@H]3CC[C@H](C3)O[C@@H]1C2 [Metabolite M15] | > 100 | 39 |  | NIO | 0 |  | 0.55 | minimal to no inhibition
